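Grown in 96-well plates, cells were treated for 48 hours with each compound at five concentrations. Insufficient inhibition: endpoint recorded as highest concentration tested. TGI is the concentration that stops growth completely.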
Tests used:
Assay in all cases: growth of human tumour cells (NCI), 48 h
[1] = test system: OVCAR-5 ovarian
[2] = test system: HCT-15 colon
[3] = test system: MDA-MB-435
[4] = test system: SK-MEL-28 melanoma
[5] = test system: MDA-MB-231 breast
[6] = test system: EKVX NSCLC
[7] = test system: COLO 205 colon
[8] = test system: 786-0 renal
[9] = test system: CCRF-CEM leukemia
[10] = test system: A549 NSCLC
[11] = test system: LOX IMVI melanoma

Row | SMILES | TGI [1] | TGI [2] | TGI [3] | TGI [4] | TGI [5] | TGI [6] | TGI [7] | TGI [8] | TGI [9] | TGI [10] | TGI [11]
1 | Cc1c(O)nc(-n2[nH]c3c(c2=O)CCCC3)[nH]c1=O | > 100 µM | > 100 µM | > 100 µM | > 100 µM | > 100 µM | > 100 µM | > 100 µM | > 100 µM | > 100 µM |  | 
2 | CCN1CN(c2ccccc2)C2(CCN(CC3COc4ccccc4O3)CC2)C1=O (stereo not given) | > 100 µM | 54.2 µM | 67.2 µM | 87.3 µM | 4.78 µM |  | 31.5 µM | > 100 µM | 83.3 µM | > 100 µM | 45.2 µM
3 | O=P(O)(O)C(N=C(Nc1ccccc1)Nc1ccccc1)P(=O)(O)O | > 100 µM | > 100 µM |  |  | > 100 µM | > 100 µM | > 100 µM | > 100 µM |  | > 100 µM | > 100 µM
4 | C=C1CC(C#N)(C#N)[C@H]2C3CCCC3C[C@@H]12 (stereo not given in full) (tested in a mixture with another compound) |  | 32.8 µM | 44.5 µM | 42.4 µM | 55.2 µM | 98.4 µM |  | 36.9 µM |  |  | 
5 | Cc1nn(-c2ccccc2)c2c1C(c1cc3ccccc3nc1Cl)NC(=O)N2 (stereo not given) | 43.8 µM | 48.1 µM | 54.7 µM |  | 59.3 µM | 88.8 µM | 41.1 µM | 35.2 µM | 71.6 µM | > 100 µM | 44.8 µM
6 | OC[C@H]1O[C@@H]2O[C@@](COCc3ccccc3)([C@H](OCc3ccccc3)[C@H]2O)[C@@H]1OCc1ccccc1 | 31.3 µM | 36.1 µM | 31.8 µM |  | 29.3 µM | 28 µM | 35 µM | 30.7 µM | 35.4 µM | 29.3 µM | 32.2 µM
7 | O=C1c2ccccc2C(=O)N1n1c(Cc2ccc([N+](=O)[O-])cc2)n[nH]c1=O | > 100 µM | > 100 µM | > 100 µM | > 100 µM | > 100 µM |  |  | > 100 µM |  | > 100 µM | 
8 | COc1cc(OC)c2c(=O)cc(-c3ccc(OC)c(OC)c3OC)oc2c1 | > 100 µM | > 100 µM |  | > 100 µM |  | > 100 µM | > 100 µM | > 100 µM |  | > 100 µM | > 100 µM
9 | COc1ccc(CCN(C)C2CCC(C#N)(c3ccc(OC)c(OC)c3)CC2)cc1OC (stereo not given) | > 100 µM | > 100 µM |  | > 100 µM |  | > 100 µM | 91.4 µM | > 100 µM | > 100 µM | > 100 µM | > 100 µM
10 | CC1=Cc2cccc(C)c2C(=O)C1=O | 34.2 µM | 16.4 µM |  | 31.5 µM |  | 24.5 µM | 3.49 µM | 6.96 µM |  | 25.1 µM | 21.5 µM
11 | Cc1ccc(/C=N\NC2c3cc(Cl)ccc3Nc3nc(=O)[nH]c(C)c32)cc1 (stereo not given) |  |  |  | > 100 µM |  | > 100 µM | > 100 µM | > 100 µM | > 100 µM | > 100 µM | > 100 µM
12 | COC(=O)/C(=C/c1ccc(OC)cc1)C(C(=O)O)=C1CCCC1 | > 100 µM | > 100 µM |  |  |  | > 100 µM | > 100 µM | > 100 µM | > 100 µM | > 100 µM | > 100 µM

Source: PubChem BioAssay (NCI)
